Laboratory results: US7473688B2, “Indolobenzazepine HCV NS5B inhibitors” (Bristol-Myers Squibb Company, priority 2005, dated 2009)

Assays:
HCV NS5B = target: T1, HCV NS5B (Hepatitis C virus genotype 1b, UniProt Q9WMX2); test: HCV NS5B RdRp enzyme assay (preincubation protocol); format: biochemical; conditions: Table 1, read-out: IC50*
T1 construct: The protein was expressed with an 18 amino acid C-terminal truncation to enhance the solubility; made in house; host or cells: E. coli BL21 (DE3), pET21a
T1 sequence (Q9WMX2 2420-2992): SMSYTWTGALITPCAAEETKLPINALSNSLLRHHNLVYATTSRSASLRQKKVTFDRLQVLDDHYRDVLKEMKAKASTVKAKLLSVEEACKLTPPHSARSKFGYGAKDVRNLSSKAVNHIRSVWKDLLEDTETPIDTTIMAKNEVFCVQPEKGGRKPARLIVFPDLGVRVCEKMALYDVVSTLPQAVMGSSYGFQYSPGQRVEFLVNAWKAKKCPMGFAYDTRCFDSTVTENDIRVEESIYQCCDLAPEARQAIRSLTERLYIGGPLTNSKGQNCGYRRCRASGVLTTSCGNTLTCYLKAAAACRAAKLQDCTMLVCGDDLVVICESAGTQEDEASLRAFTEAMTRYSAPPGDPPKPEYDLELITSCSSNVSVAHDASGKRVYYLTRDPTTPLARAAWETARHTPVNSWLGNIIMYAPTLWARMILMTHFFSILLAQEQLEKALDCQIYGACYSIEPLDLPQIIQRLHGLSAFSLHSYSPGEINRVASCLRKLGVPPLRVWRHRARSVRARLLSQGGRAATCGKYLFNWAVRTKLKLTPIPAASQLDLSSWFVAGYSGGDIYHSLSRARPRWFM
Procedure, shortened: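 Preincubation format: enzyme (14 nM, genotype 1b, 18-residue C-terminal truncation) meets diluted compound first; reaction started with bead-bound biotinylated dT12 primer, polyA template 0.2 nM and 0.29 μM 3H-UTP. Run 4 h, 30 °C in Hepes pH 7.5; scintillation proximity signal; IC50 fitted from seven inhibitor levels.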

HCV replicon = HCV replicon FRET assay; format: cell-based; conditions: Hepatitis C virus, Table 1; FRET assay; read-out: EC50*
Excerpt: FRET Assay Preparation. To perform the HCV FRET screening assay, 96-well cell culture plates were used. The FRET peptide (Anaspec, Inc.) (Taliani et al., Anal. Biochem. 1996, 240, 60-67) contains a fluorescence donor, EDANS, near one end of the peptide and an acceptor, DABCYL, near the other end. The fluorescence of the peptide is quenched by […] resonance energy transfer (RET) between the donor and the acceptor, but as the NS3 protease cleaves the peptide the products are released from RET quenching and the fluorescence of the donor becomes apparent. The assay reagent was made as follows: 5× cell Luciferase cell culture lysis reagent from Promega (#E153A) diluted to 1× with dH2O, NaCl added to 150 mM final, the FRET peptide diluted to 20 uM final from a 2 mM stock.
To prepare plates, HCV replicon cells, with or without a Renilla luciferase reporter gene, were trypsinized and placed into each well of a 96-well plate with titrated test compounds added in columns 3 through 12; columns 1 and 2 contained a control compound (HCV protease inhibitor), and the bottom row contained cells without compound. The plates were then placed in a CO2 incubator at 37° C.
Assays. Subsequent to addition of the test compounds described above (FRET Assay Preparation), at various times the plate was removed and Alamar blue solution (Trek Diagnostics, #00-100) was added per well as a measure of cellular toxicity. After reading in a Cytoflour 4000 instrument (PE Biosystems), plates were rinsed with PBS and then used for FRET assay by the addition of 30 ul of the FRET peptide assay reagent described above (FRET Assay Preparation) per well. The plate was then placed into the Cytoflour 4000 instrument which had been set to 340 excite/490 emission, automatic mode for 20 cycles and the plate read in a kinetic mode. Typically, the signal to noise using an endpoint analysis after the reads was at least three-fold. Alternatively, after Alamar blue reading, plates were rinsed with PBS, 50 ul of DMEM (high glucose) without phenol red was added and plates were then used for luciferase assay using the Promega Dual-Glo Luciferase Assay System.
Compound analysis was determined by quantification of the relative HCV replicon inhibition and the relative cytotoxicity values. To calculate cytoxicity values, the average Alamar Blue fluorescence signals from the control wells were set as 100% non-toxic. The individual signals in each of the compound test wells were then divided by the average control signal and multiplied by 100% to determine […]. To calculate the HCV replicon inhibition values, an average background value was obtained from the two wells containing the highest amount of HCV protease inhibitor at the end of the assay period. These numbers were similar to those obtained from naïve Huh-7 cells.
The background numbers were then subtracted from the average signal obtained from the control wells and this number was used as 100% activity. The individual signals in each of the compound test wells were then divided by the averaged control values after background subtraction and multiplied by 100% to determine percent activity. EC50 values for a protease inhibitor titration were calculated as the concentration which caused a 50% reduction in FRET or luciferase activity. The two numbers generated for the compound plate, percent cytoxicity and percent activity were used to determine compounds of interest for further analysis.

| SMILES | IC50 (HCV NS5B) [nM] | EC50 (HCV replicon) [nM] |
| --- | --- | --- |
| CN(C)S(=O)(=O)NC(=O)c1ccc2c(C3CCCCC3)c3n(c2c1)CC(C(=O)N1CCN(C(=O)OC(C)(C)C)CC1)=Cc1ccccc1-3 | 10 to 1000 | 70 to 1000 |
| CN(C)S(=O)(=O)NC(=O)c1ccc2c(C3CCCCC3)c3n(c2c1)CC(C(=O)N1CCNC(=O)C1)=Cc1ccccc1-3 | 10 to 1000 | 70 to 1000 |
| CN(C)S(=O)(=O)NC(=O)c1ccc2c(C3CCCCC3)c3n(c2c1)CC(C(=O)N1CCN(S(C)(=O)=O)CC1)=Cc1ccccc1-3 | 10 to 1000 | 70 to 1000 |
| CC(=O)N1CCN(C(=O)C2=Cc3ccccc3-c3c(C4CCCCC4)c4ccc(C(=O)NS(=O)(=O)N(C)C)cc4n3C2)CC1 | 10 to 1000 | 70 to 1000 |
| CN(C)S(=O)(=O)NC(=O)c1ccc2c(C3CCCCC3)c3n(c2c1)CC(C(=O)N1CCN(c2ccccc2)CC1)=Cc1ccccc1-3 | 10 to 1000 | 70 to 1000 |
| O=C(O)c1ccc2c(C3CCCCC3)c3n(c2c1)CC(C(=O)N1CCC(N2CCCC2=O)CC1)=Cc1ccccc1-3 | 10 to 1000 | 70 to 1000 |
| CN(C)S(=O)(=O)NC(=O)c1ccc2c(C3CCCCC3)c3n(c2c1)CC(C(=O)N1CCC(N2CCCC2=O)CC1)=Cc1ccccc1-3 | 10 to 1000 | 70 to 1000 |
| CC(=O)NC1CCN(C(=O)C2=Cc3ccccc3-c3c(C4CCCCC4)c4ccc(C(=O)O)cc4n3C2)CC1 | 10 to 1000 | 70 to 1000 |
| O=C(O)c1ccc2c(C3CCCCC3)c3n(c2c1)CC(C(=O)N1CCC(n2ccnn2)CC1)=Cc1ccccc1-3 | 10 to 1000 | 70 to 1000 |
| COC(=O)c1ccc2c(C3CCCCC3)c3n(c2c1)CC(C(=O)N1CCC(N2CCCCC2=O)CC1)Cc1ccccc1-3 (centres unmarked) | > 1000 | 70 to 1000 |
| O=C(O)c1ccc2c(C3CCCCC3)c3n(c2c1)CC(C(=O)N1CCC(N2CCCCC2=O)CC1)Cc1ccccc1-3 (centres unmarked) | 10 to 1000 | 70 to 1000 |
| CS(=O)(=O)NC(=O)c1ccc2c(C3CCCCC3)c3n(c2c1)CC(C(=O)N1CCC(N2CCCC2=O)CC1)=Cc1ccccc1-3 | 10 to 1000 | 1000 to 10000 |
| CN(C)S(=O)(=O)NC(=O)c1ccc2c(C3CCCCC3)c3n(c2c1)CC(C(=O)N1CCC(N2CCCCC2=O)CC1)Cc1ccccc1-3 (centres unmarked) | 10 to 1000 | 70 to 1000 |
| CN(C)S(=O)(=O)NC(=O)c1ccc2c(C3CCCCC3)c3n(c2c1)CC(C(=O)N1CCC(C(=O)N2CCCC2)CC1)=Cc1ccccc1-3 | 10 to 1000 | 70 to 1000 |
| CN(C)S(=O)(=O)NC(=O)c1ccc2c(C3CCCCC3)c3n(c2c1)CC(C(=O)N1CCC(n2ccnn2)CC1)=Cc1ccccc1-3 | 10 to 1000 | 70 to 1000 |
| CN(C)S(=O)(=O)NC(=O)c1ccc2c(C3CCCCC3)c3n(c2c1)CC(C(=O)N1CCC(N2CCOCC2)CC1)Cc1ccccc1-3 (centres unmarked) | 10 to 1000 | 70 to 1000 |
| COC(=O)c1ccc2c(C3CCCCC3)c3n(c2c1)CC(C(=O)N1CCC(N2CCOCC2)CC1)=Cc1cc(OC)ccc1-3 | > 1000 | 1000 to 10000 |
| CCN(CC)C(=O)C1CCCN(C(=O)C2=Cc3ccccc3-c3c(C4CCCCC4)c4ccc(C(=O)NS(=O)(=O)N(C)C)cc4n3C2)C1 (centres unmarked) | 10 to 1000 | 70 to 1000 |
| O=C(O)c1ccc2c(C3CCCCC3)c3n(c2c1)CC(C(=O)N1CCC(N2CCOCC2)CC1)=Cc1ccc(Cl)cc1-3 | > 1000 | 1000 to 10000 |
| COc1ccc2c(c1)C=C(C(=O)N1CCC(N3CCOCC3)CC1)Cn1c-2c(C2CCCCC2)c2ccc(C(=O)O)cc21 | 10 to 1000 | 70 to 1000 |
| CN(C)S(=O)(=O)NC(=O)c1ccc2c(C3CCCCC3)c3n(c2c1)CC(C(=O)N1CCC(N(C2CC2)S(=O)(=O)c2ccccc2)CC1)=Cc1ccccc1-3 | 10 to 1000 | 70 to 1000 |
| CN(C)S(=O)(=O)NC(=O)c1ccc2c(C3CCCCC3)c3n(c2c1)CC(C(=O)N1CCC(N2CCC(F)(F)CC2)CC1)=Cc1ccccc1-3 | 10 to 1000 | 70 to 1000 |
| CN(C)S(=O)(=O)NC(=O)c1ccc2c(C3CCCCC3)c3n(c2c1)CC(C(=O)N1CCC(F)(F)CC1)=Cc1ccccc1-3 | 10 to 1000 | 70 to 1000 |

| SMILES | IC50 (HCV NS5B) [nM] | EC50 (HCV replicon) [nM] |
| --- | --- | --- |
| CN(C)S(=O)(=O)NC(=O)c1ccc2c(C3CCCCC3)c3n(c2c1)CC(C(=O)N1CCCC(F)(F)C1)=Cc1ccccc1-3 | 10 to 1000 | 70 to 1000 |
| COc1ccc2c(c1)C=C(C(=O)N1CCC(N3CCOCC3)CC1)Cn1c-2c(C2CCCCC2)c2ccc(C(=O)NS(=O)(=O)N(C)C)cc21 | 10 to 1000 | 70 to 1000 |
| CN(C)S(=O)(=O)NC(=O)c1ccc2c(C3CCCCC3)c3n(c2c1)CC(C(=O)N1CCC(N2CCOCC2)CC1)=Cc1ccc(Cl)cc1-3 | > 1000 | 1000 to 10000 |
| COC(=O)c1ccc2c(C3CCCCC3)c3n(c2c1)CC(NC(=O)N1CCC(N2CCOCC2)CC1)Cc1ccccc1-3 (centres unmarked) | 10 to 1000 | > 120 |
| O=C(O)c1ccc2c(C3CCCCC3)c3n(c2c1)CC(NC(=O)N1CCC(N2CCOCC2)CC1)Cc1ccccc1-3 (centres unmarked) | 10 to 1000 | 70 to 1000 |
| COC(=O)c1ccc2c(C3CCCCC3)c3n(c2c1)CC(C(=O)N1CCCC(F)C1)=Cc1ccccc1-3 (centres unmarked) | 10 to 1000 | > 370 |
| COC(=O)c1ccc2c(C3CCCCC3)c3n(c2c1)CC(C(=O)N1CCC(N2CCCC(F)C2)CC1)=Cc1ccccc1-3 (centres unmarked) | > 1000 | > 370 |
| COC(=O)c1ccc2c(C3CCCCC3)c3n(c2c1)CC(C(=O)N1CCC(N2CCCC(F)(F)C2)CC1)=Cc1ccccc1-3 | > 1000 | > 370 |
| COC(=O)c1ccc2c(C3CCCCC3)c3n(c2c1)CC(C(=O)N1CC[C@H](F)C1)=Cc1ccccc1-3 | > 1000 | > 370 |
| COC(=O)c1ccc2c(C3CCCCC3)c3n(c2c1)CC(C(=O)N1CCC(N2CC[C@@H](F)C2)CC1)=Cc1ccccc1-3 | > 1000 | > 370 |
| COC(=O)c1ccc2c(C3CCCCC3)c3n(c2c1)CC(C(=O)N1CCC(N2CCC(F)CC2)CC1)=Cc1ccccc1-3 | > 1000 | > 370 |
| COC(=O)c1ccc2c(C3CCCCC3)c3n(c2c1)CC(C(=O)N1CCCC(=O)N1)=Cc1ccccc1-3 | > 1000 | 1000 to 10000 |
| COC(=O)c1ccc2c(C3CCCCC3)c3n(c2c1)CC(C(=O)N1CCCC(C(N)=O)C1)=Cc1ccccc1-3 (centres unmarked) | > 1000 | 1000 to 10000 |
| O=C(O)c1ccc2c(C3CCCCC3)c3n(c2c1)CC(C(=O)N1CCCC(F)C1)=Cc1ccccc1-3 (centres unmarked) | 10 to 1000 | 1000 to 10000 |
| O=C(O)c1ccc2c(C3CCCCC3)c3n(c2c1)CC(C(=O)N1CCC(N2CCCC(F)C2)CC1)=Cc1ccccc1-3 (centres unmarked) | 10 to 1000 | 70 to 1000 |
| O=C(O)c1ccc2c(C3CCCCC3)c3n(c2c1)CC(C(=O)N1CCC(N2CCCC(F)(F)C2)CC1)=Cc1ccccc1-3 | 10 to 1000 | 70 to 1000 |
| O=C(O)c1ccc2c(C3CCCCC3)c3n(c2c1)CC(C(=O)N1CC[C@@H](F)C1)=Cc1ccccc1-3 | 10 to 1000 | 70 to 1000 |
| O=C(O)c1ccc2c(C3CCCCC3)c3n(c2c1)CC(C(=O)N1CC[C@H](F)C1)=Cc1ccccc1-3 | 10 to 1000 | 70 to 1000 |
| O=C(O)c1ccc2c(C3CCCCC3)c3n(c2c1)CC(C(=O)N1CCC(N2CC[C@@H](F)C2)CC1)=Cc1ccccc1-3 | 10 to 1000 | 70 to 1000 |
| O=C(O)c1ccc2c(C3CCCCC3)c3n(c2c1)CC(C(=O)N1CCC(N2CC[C@H](F)C2)CC1)=Cc1ccccc1-3 | 10 to 1000 | 70 to 1000 |
| O=C(O)c1ccc2c(C3CCCCC3)c3n(c2c1)CC(C(=O)N1CCC(N2CCC(F)CC2)CC1)=Cc1ccccc1-3 | 10 to 1000 | 70 to 1000 |
| O=C1CCCN(C(=O)C2=Cc3ccccc3-c3c(C4CCCCC4)c4ccc(C(=O)O)cc4n3C2)N1 | 10 to 1000 | 1000 to 10000 |
| NC(=O)C1CCCN(C(=O)C2Cc3ccccc3-c3c(C4CCCCC4)c4ccc(C(=O)O)cc4n3C2)C1 (centres unmarked) | 10 to 1000 | 1000 to 10000 |
